# Laboratory results from article PMC5352749, “Novel insights into biosynthesis and uptake of rhamnolipids and their precursors” (Applied Microbiology and Biotechnology, 2016).
# How the values were obtained:
# RhlB = biological target: T1, RhlB (Pseudomonas aeruginosa, UniProt Q9HYD1); assay: HPLC-UV of mono-rhamnolipids formed by recombinant P. putida fed HAA; format: cell-based; settings: HAA-containing conditioned LB medium (congener mixture, C10-C10 quantified); 30 °C, 24 h; cellular dTDP-L-rhamnose as donor
# T1 construct: full-length untagged gene in pVLT33 (native RBS), expressed alone in P. putida KT2440
# RhlC = biological target: T2, RhlC (Pseudomonas aeruginosa, UniProt Q9I4K5); assay: HPLC-UV of di-rhamnolipids formed by recombinant P. putida fed mono-rhamnolipids; format: cell-based; settings: mono-rhamnolipid conditioned LB medium (congener mixture, C10-C10 predominant and quantified); 30 °C, 24 h; cellular dTDP-L-rhamnose as donor
# T2 construct: full-length untagged gene in pVLT33 (native RBS), expressed alone in P. putida KT2440
# T2 sequence (Q9I4K5 entry or part of it): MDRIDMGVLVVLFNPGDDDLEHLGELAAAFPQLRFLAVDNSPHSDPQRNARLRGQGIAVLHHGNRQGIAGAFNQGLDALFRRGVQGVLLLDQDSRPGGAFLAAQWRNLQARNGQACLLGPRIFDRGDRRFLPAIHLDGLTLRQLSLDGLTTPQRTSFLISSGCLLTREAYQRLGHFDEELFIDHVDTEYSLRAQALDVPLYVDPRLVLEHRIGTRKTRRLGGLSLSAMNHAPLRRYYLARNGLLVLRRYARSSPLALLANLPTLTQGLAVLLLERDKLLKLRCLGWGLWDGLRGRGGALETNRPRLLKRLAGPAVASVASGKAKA
# T1 sequence (Q9HYD1 entry or part of it): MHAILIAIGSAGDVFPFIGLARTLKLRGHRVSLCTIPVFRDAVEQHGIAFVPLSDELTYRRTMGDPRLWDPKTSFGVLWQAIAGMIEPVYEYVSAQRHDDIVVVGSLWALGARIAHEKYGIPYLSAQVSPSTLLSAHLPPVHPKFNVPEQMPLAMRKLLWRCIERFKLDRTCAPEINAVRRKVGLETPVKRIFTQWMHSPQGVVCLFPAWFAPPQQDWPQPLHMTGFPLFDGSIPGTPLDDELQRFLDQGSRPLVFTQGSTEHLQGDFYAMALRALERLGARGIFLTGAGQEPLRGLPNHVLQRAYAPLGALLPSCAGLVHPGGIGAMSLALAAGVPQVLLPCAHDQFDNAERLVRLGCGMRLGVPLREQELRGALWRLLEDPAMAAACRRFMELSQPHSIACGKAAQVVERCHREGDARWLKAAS
Structure (SMILES),HPLC-UV of mono-rhamnolipids formed by recombinant P. putida fed HAA (RhlB),HPLC-UV of di-rhamnolipids formed by recombinant P. putida fed mono-rhamnolipids (RhlC)
CCCCCCCC(O)CC(=O)OC(CCCCCCC)CC(=O)O (centres unmarked) [C10-C10 (HAA)],HAAs synthesized by P. putida and provided in the form of the conditioned medium serve,
CCCCCCC[C@H](CC(=O)O)OC(=O)C[C@@H](CCCCCCC)O[C@@H]1O[C@@H](C)[C@H](O)[C@@H](O)[C@H]1O [Rha-C10-C10],,extracellularly provided mono-rhamnolipids were converted to di-rhamnolipids by RhlC in recombinant P. putida
